Patent publication US9982005B2, “Macrolides and methods of their preparation and use” (President and Fellows of Harvard College, priority 2013, dated 2018)
Converted amounts (≈) assume the structure as drawn. Like-named read-outs stand apart in the source and are kept apart here.

How the values were obtained:
Type in all cases: cell-based
[1] = test system: Spn1537 S. pneumoniae ermB positive mefA positive; test: broth dilution MIC, S. pneumoniae Spn1537; conditions: Streptococcus pneumoniae
Excerpt: (§1) We have collected MIC data for a total of 50 novel macrolides that this platform has produced against over 21 unique strains of B. subtilis, E. coli, S. aureus, S. pneumoniae, and H. influenzae, including several multidrug-resistant strains, with a special focus on macrolide resistant mechanisms (vide supra). Azithromycin was included as a control macrolide. CLSI standard procedures for broth dilution MIC determination were used. […] These genotypes can be constitutive or inducible. The finding that C4-epi (unnatural) isomers of the “azaketolide” macrolide class have enhanced activities relative to C4 natural isomers is very exciting.

[2] = test system: Spn1533 S. pneumoniae ermB positive mefA positive; test: broth dilution MIC, S. pneumoniae Spn1533; conditions: Streptococcus pneumoniae
Excerpt: as §1

[3] = test system: Spn1509 S. pneumoniae ermB positive mefA negative; test: broth dilution MIC, S. pneumoniae Spn1509; conditions: Streptococcus pneumoniae; Spn1509 S. pneumoniae ermB positive mefA negative; read-out: MIC
Excerpt: as §1

[4] = test system: Spn 106 S. pneumonia ATCC49619; test: broth dilution MIC, S. pneumoniae Spn 106; conditions: Streptococcus pneumoniae
Excerpt: as §1

[5] = test system: Spn1427 S. pneumoniae ermB positive mefA negative; test: broth dilution MIC, S. pneumoniae Spn1427; conditions: Streptococcus pneumoniae
Excerpt: as §1

[6] = test system: SA557 S. aureus ermA unknown msrA positive; test: broth dilution MIC, S. aureus SA557; conditions: Staphylococcus aureus; SA557 S. aureus ermA unknown msrA positive; read-out: MIC
Excerpt: as §1

[7] = test system: HI281 H. influenzae; test: broth dilution MIC, H. influenzae HI281; conditions: Haemophilus influenzae
Excerpt: as §1

[8] = test system: EC882 E. coli imp; test: broth dilution MIC, E. coli EC882; conditions: Escherichia coli
Procedure, shortened: (§2)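 Read-out is the minimum inhibitory concentration, obtained by broth dilution per CLSI standards. The strain panel included multidrug-resistant isolates carrying macrolide-resistance genotypes, which may be constitutive or inducible.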

[9] = test system: EC878 E. coli tolC; test: broth dilution MIC, E. coli EC878; conditions: Escherichia coli
Procedure, shortened: as §2

[10] = test system: BS1723 B. subtilis BS168 WT wild type; test: broth dilution MIC, B. subtilis BS1723; conditions: Bacillus subtilis, BS1723 B. subtilis BS168 WT wild type; read-out: MIC
Procedure, shortened: as §2

[11] = test system: EC107 E. coli ATCC25922; test: broth dilution MIC, E. coli EC107; conditions: Escherichia coli, read-out: MIC
Procedure, shortened: as §2

[12] = test system: Spn160 S. pneumoniae ermB unknown mefA positive; test: broth dilution MIC, S. pneumoniae Spn160; conditions: Streptococcus pneumoniae; Spn160 S. pneumoniae ermB unknown mefA positive; read-out: MIC
Excerpt: as §1

[13] = test system: BS1725 B. subtilis ermC; test: broth dilution MIC, B. subtilis BS1725; conditions: Bacillus subtilis
Procedure, shortened: as §2

[14] = test system: SA101 S. aureus ATCC29213; test: broth dilution MIC, S. aureus SA101; conditions: Staphylococcus aureus, ATCC29213, SA101 S. aureus ATCC29213; read-out: MIC
Procedure, shortened: as §2

[15] = test system: SA1708 S. aureus ermA positive msrA negative; test: broth dilution MIC, S. aureus SA1708; conditions: Staphylococcus aureus
Excerpt: as §1

[16] = test system: SA183 S. aureus ermA positive msrA unknown; test: broth dilution MIC, S. aureus SA183; conditions: Staphylococcus aureus
Excerpt: as §1

[17] = test system: HI175 H. influenzae ATCC49247; test: broth dilution MIC, H. influenzae HI175; conditions: Haemophilus influenzae
Excerpt: as §1

[18] = test system: SA506 S. aureus ermA positive msrA unknown; test: broth dilution MIC, S. aureus SA506; conditions: Staphylococcus aureus
Excerpt: as §1

[19] = test system: SA1707 S. aureus ermA negative msrA positive; test: broth dilution MIC, S. aureus SA1707; conditions: Staphylococcus aureus
Excerpt: as §1

[20] = test system: SA418 S. aureus ermA negative msrA positive; test: broth dilution MIC, S. aureus SA418; conditions: Staphylococcus aureus
Excerpt: as §1

[21] = test system: A. baumannii strains; test: MIC against A. baumannii strains (Table M8); conditions: Acinetobacter baumannii, BAA747, A. baumannii BAA747-1
[22] = test system: E. coli strains; test: MIC against E. coli strains (Table M7); conditions: Escherichia coli, ATCC25922, E. coli ATCC 25922
Procedure, shortened: as §2

[23] = test system: K. pneumoniae strains; test: MIC against K. pneumoniae strains (Table M8); conditions: Klebsiella pneumoniae, K. pneumoniae 10031
[24] = test system: S. pneumoniae strains; test: MIC against S. pneumoniae strains (Tables M7, M8); conditions: Streptococcus pneumoniae
Excerpt: CLSI standard procedures for broth dilution MIC determination were used. […] These genotypes can be constitutive or inducible.

[25] = test system: S. aureus strains; test: MIC against S. aureus strains (Table M7); conditions: Staphylococcus aureus
Procedure, shortened: as §2

[26] = test system: E. faecalis strains; test: MIC against E. faecalis strains (Table M8); conditions: Enterococcus faecalis, E. faecalis 29212
[27] = test system: H. influenzae strains; test: MIC against H. influenzae strains (Table M8); conditions: Haemophilus influenzae
Procedure, shortened: as §2

[28] = Spn 106 S. pneumonia ATCC49619, read-out: MIC

CC[C@H]1OC(=O)C(C)(F)C(=O)[C@@H](C)[C@@H](O[C@@H]2OC(C)CC(N(C)C)C2O)[C@](C)(OC)C[C@@H](C)CN[C@H](C)[C@H]2N(CCCCn3cc(-c4ccccn4)nn3)C(=O)O[C@]12C (stereo partly shown) [FSM-20716]
MIC [1]: > 32 µg/mL | MIC [2]: > 32 µg/mL | MIC [3]: 8 µg/mL (≈ 9.62 µM) | MIC [4, 28]: 0.25 µg/mL (≈ 0.3 µM) | MIC [5]: > 32 µg/mL | MIC [6]: 16 µg/mL (≈ 19.2 µM) | MIC [7]: > 32 µg/mL | MIC [8]: 0.25 µg/mL (≈ 0.3 µM) | MIC [9]: 1 µg/mL (≈ 1.2 µM) | MIC [10]: 8 µg/mL (≈ 9.62 µM) | MIC [11]: > 32 µg/mL | MIC [12]: 0.5 µg/mL (≈ 0.601 µM) | MIC ([13]; BS1725 B. subtilis ermC (+ery)): > 32 µg/mL | MIC ([13]; BS1725 B. subtilis ermC (−ery)): 4 µg/mL (≈ 4.81 µM) | MIC [14]: 8 µg/mL (≈ 9.62 µM) | MIC [15]: 32 µg/mL (≈ 38.5 µM) | MIC [16]: > 32 µg/mL | MIC [17]: 8 µg/mL (≈ 9.62 µM) | MIC [18]: > 32 µg/mL | MIC [19]: 16 µg/mL (≈ 19.2 µM) | MIC [20]: 16 µg/mL (≈ 19.2 µM)

CC[C@H]1OC(=O)C(C)(F)C(=O)[C@@H](C)[C@@H](O[C@@H]2OC(C)CC(N(C)C)C2O)[C@](C)(OC)C[C@@H](C)CN[C@H](C)[C@H]2N(CCCCn3cc(-c4cccc(N)c4)nn3)C(=O)O[C@]12C (stereo partly shown) [FSM-20720]
MIC [1]: > 32 µg/mL | MIC [2]: > 32 µg/mL | MIC [21]: > 32 µg/mL | MIC [3]: 2 µg/mL (≈ 2.36 µM) | MIC [22]: > 32 µg/mL | MIC [23]: 8 µg/mL (≈ 9.46 µM) | MIC [4, 28]: 0.125 µg/mL (≈ 0.148 µM) | MIC [5]: 8 µg/mL (≈ 9.46 µM) | MIC [6]: 8 µg/mL (≈ 9.46 µM) | MIC [7]: 32 µg/mL (≈ 37.8 µM) | MIC [8]: 1 µg/mL (≈ 1.18 µM) | MIC [9]: 1 µg/mL (≈ 1.18 µM) | MIC [10]: 4 µg/mL (≈ 4.73 µM) | MIC [11]: > 32 µg/mL | MIC [12]: 0.5 µg/mL (≈ 0.591 µM) | MIC ([24]; S. pneumoniae 160, read-out: MIC S. pneumonae (160)): 0.5 µg/mL (≈ 0.591 µM) | MIC ([24]; S. pneumoniae 1509, read-out: MIC S. pneumoniae (1509)): 8 µg/mL (≈ 9.46 µM) | MIC ([24]; S. pneumoniae 1533, read-out: MIC S. pneumoniae (1533)): > 32 µg/mL | MIC ([24]; S. pneumoniae 1537, read-out: MIC S. pneumoniae (1537)): > 32 µg/mL | MIC ([24]; S. pneumoniae 49619, read-out: MIC S. pneumoniae (49619)): 1 µg/mL (≈ 1.18 µM) | MIC ([13]; BS1725 B. subtilis ermC (+ery)): > 32 µg/mL | MIC [14]: 4 to 8 µg/mL (≈ 4.73 to 9.46 µM) | MIC ([25]; ATCC29213, S. aureus ATCC 29213, read-out: MIC S. aureus (ATCC 29213)): 4 µg/mL (≈ 4.73 µM) | MIC ([25]; S. aureus 506, read-out: MIC S. aureus (506)): > 32 µg/mL | MIC ([25]; S. aureus 1708, read-out: MIC S. aureus (1708)): 8 µg/mL (≈ 9.46 µM) | MIC ([25]; USA300, S. aureus USA300, read-out: MIC S. aureus (USA300)): 8 µg/mL (≈ 9.46 µM) | MIC [26]: 2 µg/mL (≈ 2.36 µM) | MIC [15]: 16 µg/mL (≈ 18.9 µM) | MIC ([27]; H. influenzae 49247, read-out: MIC H. influenzae (49247)): 8 µg/mL (≈ 9.46 µM) | MIC ([27]; H. influenzae 49766, read-out: MIC H. influenzae (49766)): 32 µg/mL (≈ 37.8 µM) | MIC [16]: > 32 µg/mL | MIC [17]: 4 µg/mL (≈ 4.73 µM) | MIC [18]: > 32 µg/mL | MIC [19]: 16 µg/mL (≈ 18.9 µM) | MIC [20]: 8 µg/mL (≈ 9.46 µM)

CC[C@H]1OC(=O)C(C)C(=O)[C@@H](C)[C@@H](O[C@@H]2OC(C)CC(N(C)C)C2O)[C@](C)(OC)C[C@@H](C)CN[C@H](C)[C@H]2N(CCCCn3cc(-c4ccccn4)nn3)C(=O)O[C@]12C (stereo partly shown) [FSM-20754]
MIC [1]: > 32 µg/mL | MIC [2]: > 32 µg/mL | MIC [3]: 4 µg/mL (≈ 4.91 µM) | MIC ([4]; ATCC49619): 0.0625 µg/mL (≈ 0.0768 µM) | MIC [5]: > 32 µg/mL | MIC [6]: 4 µg/mL (≈ 4.91 µM) | MIC [7]: 8 µg/mL (≈ 9.83 µM) | MIC [8]: 0.125 µg/mL (≈ 0.154 µM) | MIC [9]: 0.5 µg/mL (≈ 0.614 µM) | MIC [10]: 2 µg/mL (≈ 2.46 µM) | MIC [11]: 16 µg/mL (≈ 19.7 µM) | MIC [12]: 0.25 µg/mL (≈ 0.307 µM) | MIC ([13]; BS1725 B. subtilis ermC (+ery)): 32 µg/mL (≈ 39.3 µM) | MIC [14]: 2 µg/mL (≈ 2.46 µM) | MIC [15]: 4 µg/mL (≈ 4.91 µM) | MIC [16]: > 32 µg/mL | MIC [17]: 2 µg/mL (≈ 2.46 µM) | MIC [18]: > 32 µg/mL | MIC [19]: 4 µg/mL (≈ 4.91 µM) | MIC [20]: 4 µg/mL (≈ 4.91 µM)
